{"source": "patent US9282759B2", "about": "“Composition including an unsaponifiable fraction” (LABORATOIRES EXPANSCIENCE, priority 2009, dated 2016)", "tested_on": "PGE2 production of arthrosis chondrocytes", "test": "PGE2 production of arthrosis chondrocytes (radioimmunoassay of culture media, per μg DNA)", "assay_type": "cell-based, human", "settings": "10 μg/ml of the composition in culture medium, 48 h, chondrocytes of osteoarthritis patients, compared with basal conditions (9±4 pg PGE2 per μg DNA)", "description": "Thin slices of cartilage of patients suffering from osteoarthritis were excised while avoiding the calcified layer. They were washed several times in DMEM medium containing HEPES, penicillin and streptomycin. The slices of cartilage were then cut into small fragments of a few cubic millimeters.\nChondrocytes were then isolated from the extracellular matrix by a succession of enzymatic digestions. The cartilage fragments were incubated at 37° C. under constant agitation in the basic medium with, successively, hyaluronidase, pronase E and finally with clostridial collagenase.\nThe cells were then filtered through a 70 μm nylon membrane, washed with DMEM and counted using a Neubauer plate. […]\nThe cultures were maintained at 37° C. in an atmosphere of 95% air and 5% CO2. At the end of the incubation period, the culture media were taken and stored at −20° C. until they were analysed. […]\nDeoxyribonucleic acid (DNA) was quantified according to the technique of Labarca and Paigen (Labarca C. and Paigen K. A simple, rapid, and sensitive DNA assay procedure, Anal Biochem, 1980. 102: 344-52). This method is based on the principle of fluorescence emitted by a reagent, bis-benzimidazole, when it binds to DNA. […] After 1 h of incubation, the samples were read with a fluorometer using an excitation wavelength of 356 nm and an emission wavelength of 458 nm. […]"}
{"substance": "vitamin K2 [composition 4]", "values": [{"measurement": "quantity of PGE2 produced", "value": "remains constant"}]}
